Test results: patent US4826873A, “2,3-dihydroxy-3-phenyl-N-(2-phenyl-ethyl)-propionic acid amides derivatives thereof” (priority 1986, dated 1989)

Tests used:
[1] = test system: acetaminophen hepatotoxicity in mice; assay: Anti-acetaminophen hepatotoxicity experiment in mice; type: in vivo, mice (male Kunming strain); conditions: 250 mg/kg two doses first day and same dose second day; acetaminophen 150 mg/kg ip
Experimental: (§1) Male Kunming strain mice weighing 18-22 grams were used throughout the experiments. The compound to be tested was suspended in 5% Tween 80 and given orally by gavage. The vehicle of 5% Tween 80 solution was administered to control mice via the same route. In the vitro experiments,the compound was dissolved in dimethylformamide and added directly into the incubation mixture.
(§2) The parameters adopted for hepatotoxicicity included serum tranaminase (SGPT), liver triglycerides, and pathological examination of liver tissues. The liver lesions were scored mainly by the extent of inflammation and necrosis and graded from 0 to 4.
In the anti-acetaminophen hepatotoxicity experiment, mice received two doses (250 mg/kg) of the compound on the first day and the same dose on the second day. A dose of 150 mg/kg of acetaminophen was injected ip 6 h after the last dose of the compound, SGPT was determined and liver tissues were examined 20 h after acetaminophen injection.

[2] = test system: CCl4 hepatotoxicity in mice; assay: Protective action against CCl4 (0.1%) hepatotoxicity in mice (Table 3); type: in vivo, mice (male Kunming strain); conditions: for SGPT (± SE): two doses, 9 per group, control 3016 ± 23; for SGPT (± SE) / Liver lipids: CCl4 0.1% 10 ml/kg i.p.; for Liver lipids: control 21.0 ± 4.2; for decreasing SGPT level and liver injuries (in words): CCl4 0.1% ip
Experimental: as §1, §2
In another experiment, mice were first administered two doses of the compound and injected ip 10 ml/kg of 0.1% CCl4 in vegetable oil 24 h after administration of the second dose.

[3] = test system: pentobarbital sleeping time in mice; assay: Pentobarbital sleeping time in mice (Table 8); type: in vivo, mice (male Kunming strain); conditions: for Sleeping time (X ± SE): 250 mg/kg, 10 per group, control 71 ± 7, P <0.01, in min (unit assumed)
Experimental: as §1
(§3) In another experiment, mice were given a dose of 250 mg/kg of the compound. Sodium pentobarbital (50 mg/kg) was injected ip 1 and 24 h after administration of the compound. The sleeping time was estimated by recording the interval of disappearance and recovery of righting reflex. […] It means that the prolongation of pentobarbital sleeping time by the compound was due to the inhibition of liver drug metabolism enzyme.

cytochrome b5 = assay: Hepatic cytochrome b5 in mice (Table 7); type: in vivo, mice (male Kunming strain)
Experimental: as §1
(§4) The liver microsomal cytochrome P-450 plays a key role in the detoxification of xenobiotics. […] Mice were administered 250 mg/kg of the compound once daily for 3 days. The control mice received the vehicle. The mice were killed after fasting overnight. Liver microsomes were prepared and microsomal monooxygenases were determined.

[4] = test system: benzo(a)pyrene hydroxylase; assay: Hepatic AHH / benzo(a)pyrene hydroxylase in mice (Table 7); type: in vivo, mice (male Kunming strain)
Experimental: as §1, §4

[5] = test system: hepatic microsomal cytochrome P-450; assay: Induction of hepatic microsomal cytochrome P-450 in mice (Table 7); type: in vivo, mice (male Kunming strain); conditions: for hepatic cytochrome P-450 (in words): 250 mg/kg once daily, 3 days
Experimental: as §1, §4, §3

[6] = test system: thioacetamide hepatotoxicity in mice; assay: Protective action against thioacetamide hepatotoxicity in mice (Table 4); type: in vivo, mice (male Kunming strain)
Experimental: as §1, §2
In the experiment of thioacetamide hepatotoxicity, mice were treated according to the procedure of CCl4 intoxication as described above except that thioacetamide 50 mg/kg was injected instead of CCl4.

liver = assay: Liver weight and microsomal protein content (Table 7); type: in vivo, mice (male Kunming strain)
Experimental: as §1, §4

[7] = test system: barbital sleeping time in mice; assay: Barbital sleeping time in mice (Table 8); type: in vivo, mice (male Kunming strain)
Experimental: as §1
In another experiment, mice were given a dose of 250 mg/kg of the compound. […] The sleeping time was estimated by recording the interval of disappearance and recovery of righting reflex. […] It means that the prolongation of pentobarbital sleeping time by the compound was due to the inhibition of liver drug metabolism enzyme.

[8] = test system: diene conjugates in liver microsomes of CCl4-intoxicated mice; assay: CCl4-initiated lipid peroxidation, diene conjugates in vivo (Table 6); design: species or system mice (male Kunming strain); conditions: 250 mg/kg, 1 ml/kg CCl4
Experimental: as §1
(§5) CCl4 hepatotoxicity has been considered to be due to formation of free radicals which initiate lipid peroxidation or covalent binding to macromolecules of microsomes. Thus, the structures and function of cell membranes were destroyed. The effect of the compound on CCl4 induced lipid peroxidation (malonic dialdehyde, MDA, in vitro, and diene conjugates in vivo) and ^14 CCl4 covalent binding to lipids and proteins of microsomes were investigated.
Diene conjugates: Mice were given two doses of 250 mg/kg of the compound on the first day and followed by the same dose on the second day and then received an injection of 1 ml/kg of CCl4. The mice were killed 1 h after the CCl4 injection. The diene conjugates in liver microsomes were extracted with chloroform-methanol (2:1) and washed with methanol 0.9% NaCl solution. The absorption of diene conjugates in the chloroform layer at 243 nm was measured with spectrophotometer.

microsomal proteins = assay: 14CCl4 covalent binding to microsomal proteins; type: biochemical, mice; conditions: 1 mM, NADPH-reduced liver microsomes
Experimental: as §1, §5
The condition of incubation was similar to that of MDA production. The compound was pre-incubated with NADPH-reduced liver microsomes for 10 minutes. The final concentration of the compound was 1 mM. ^14 CCl4 0.5 uci was added to the incubation mixture. Incubation was continued for another 60 minutes. The radio-activity of ^14 CCl4 in microsomal lipids and proteins was separated by the method of extraction of diene conjugates and counted by liquid scintillation.

[9] = test system: serum and liver transaminase (GPT); assay: Effect on serum and liver transaminase (GPT) levels of normal mice (Table 5); type: in vivo, mice (male Kunming strain)
Experimental: as §1
Groups of mice were administered the vehicle or 250 mg/kg of the compound once daily for 7 consecutive days. The serum and liver GPT were determined 24 h after the last dose administration.

## CN(CCc1ccccc1)C(=O)C(O)C(O)c1ccccc1 (stereo not shown) [Compound, 2,3-dihydroxy-N-methyl-3-phenyl-N-(2-phenylethyl)-propionic acid amide]
[1]
  anti-acetaminophen hepatotoxicity (in words): inactive
[2]; 125 mg/kg
  SGPT (± SE): 2727 ± 162 unit %
  Liver lipids: 21.0 ± 3.8 mg/g
  decreasing SGPT level and liver injuries (in words): without effect
[2]; 250 mg/kg, footnote <0.01
  SGPT (± SE): 2270 ± 221 unit %
[2]; 250 mg/kg
  Liver lipids: 22.5 ± 5.5 mg/g
  decreasing SGPT level and liver injuries (in words): effective for decreasing SGPT level and liver injuries
[2]; 250 mg/kg, graded from 0 to 4, control 1.70
  Liver lesions, Inflammation (Grade): 0.16 Grade
[2]; 250 mg/kg, graded from 0 to 4, control 2.33
  Liver lesions, Necrosis (Grade): 0.72 Grade
[3]; 1 h before pentobarbital 50 mg/kg ip
  Sleeping time (X ± SE): 132 ± 13
[3]; 24 h before pentobarbital 50 mg/kg ip
  Sleeping time (X ± SE): 45 ± 6
[3]; compound 1 h prior to pentobarbital
  pentobarbital sleeping time (in words): prolonged markedly
[3]; compound 24 h before pentobarbital
  pentobarbital sleeping time (in words): shortened significantly
Cytochrome b5; 250 mg/kg day × 3, control 0.15 ± 0.01, P >0.05
  Cytochrome b5: 0.16 ± 0.016 nmol/mg protein
Cytochrome b5; 250 mg/kg once daily, 3 days
  cytochrome b5 (in words): increased significantly
[4]; 250 mg/kg day × 3, control 2.6 ± 0.4, P <0.01
  AHH: 6.2 ± 0.42 nmol/min/mg protein
[4]; 250 mg/kg once daily, 3 days
  benzo(a)pyrene hydroxylase activity (in words): increased significantly
[5]; 250 mg/kg day × 3, control 0.87 ± 0.07, P <0.01
  Cytochrome P-450: 1.23 ± 0.06 nmol/mg protein
[5]
  hepatic cytochrome P-450 (in words): increased significantly
[5]; listed as compound of the general formula (I), R1 =H, R2 =CH3
  hepatic cytochrome P-450 (in words): inducing action on hepatic cytochrome p-450
[5]; concluded from barbiturate sleeping times
  biphasic actions on hepatic microsomal cytochrome p-450 (in words): inhibition followed by induction
[6]; 250 mg/kg × 2, thioacetamide 50 mg/kg ip, 9 per group, control 1696 ± 231, footnote <0.05
  SGPT (± SE): 1045 ± 166 unit %
[6]; 250 mg/kg × 2, thioacetamide 50 mg/kg ip, control 61 ± 11.7
  Liver lipids (± SE): 59 ± 11.3 mg/g
[6]; mouse, in vivo
  protection against thioacetamide hepatotoxicity (conclusion, in words): protected against thioacetamide hepatotoxicity
[6]; thioacetamide 50 mg/kg
  effect on SGPT levels, thioacetamide hepatotoxicity (in words): markedly lowered the SGPT levels
liver; 250 mg/kg day × 3, 6 per group, control 4.0 ± 0.2, P >0.05
  Liver weight: 4.3 ± 0.2 g %
liver; 250 mg/kg day × 3, control 6.3 ± 0.3, P >0.05
  Microsomal protein: 7.0 ± 0.5 mg/g liver
liver; 250 mg/kg once daily, 3 days
  increase of liver size (in words): not seen
  increase of microsomal protein content (in words): not seen
[7]; 1 h before barbital 200 mg/kg, 10 per group, control 197 ± 27, P >0.05
  Sleeping time (X ± SE): 172 ± 13
[7]; prior administration of compound
  barbital sleeping time (in words): did not affect sleeping time
[8]; two doses first day and same dose second day
  diene conjugates production in livers (in words): would not inhibit diene conjugates production
[8]; in vivo, number of determinations 8, control 55.8 ± 2.3
  Diene conjugates: 54.8 ± 3.3 OD × 100/g liver
Microsomal proteins
  covalent binding of 14CCl4 to microsomal proteins (in words): not inhibited
[9]; 250 mg/kg once daily, 7 days
  SGPT level of normal mice (in words): slightly higher than that of the control but the difference was not significant
[9]; normal mice, 250 mg/kg/day × 7, 8 per group, control 217 ± 17.5
  SGPT (± SE): 272 ± 27.8 unit %
[9]; normal mice, 250 mg/kg/day × 7, 8 per group, control 260 ± 11.6
  LGPT (liver GPT, ± SE): 234 ± 13.6 unit %
